Experimental data published in patent US11034650B2, “Compounds useful for treating a Mannheimia haemolytica or Histophilus somni infection” (Intervet Inc., priority 2016, dated 2021).
Converted amounts (≈) assume the structure as drawn.

How the values were obtained:
Format in all cases: cell-based
[1] = test system: Pasteurella multocida PM 6391 (ATCC 43137, reference strain); assay: MIC, broth-microdilution (CLSI VET01-A4), strain PM 6391; settings: Pasteurella multocida strain PM 6391, broth-microdilution; unit assumed
Description: (§1) For example, representative compounds were tested against ***, Mannheimia haemolytica and Pasteurella multocida, using the conventional broth-dilution assay.
(§2) The Minimum inhibitory concentrations (MIC) of compounds according to the invention for a number of veterinary bacterial pathogens were determined by the broth-microdilution method according to CLSI document VET01-A4.
(§3) Microdilution trays containing a doubling dilution series of the test compound were used for the tests. The MIC results were interpreted according to the CLSI documents VET01-S3. The lowest concentration of compound at which no visible growth (i.e. no turbidity) detected by the unaided eye was recorded as the MIC.

[2] = test system: Mannheimia haemolytica MH 12587 (1071, BRD field isolate, macrolide-resistance: erm+, E+); assay: MIC, broth-microdilution (CLSI VET01-A4), strain MH 12587; settings: Mannheimia haemolytica strain MH 12587, broth-microdilution; unit assumed
Description: as §1, §2, §3

[3] = test system: Mannheimia haemolytica MH 10720 (154, BRD field isolate); assay: MIC, broth-microdilution (CLSI VET01-A4), strain MH 10720; settings: Mannheimia haemolytica strain MH 10720, broth-microdilution; unit assumed
Description: as §1, §2, §3

[4] = test system: Pasteurella multocida PM 6267 (P 2225 (L386), reference strain, mouse infection strain); assay: MIC, broth-microdilution (CLSI VET01-A4), strain PM 6267; settings: Pasteurella multocida strain PM 6267, broth-microdilution; unit assumed
Description: as §1, §2, §3

[5] = test system: Pasteurella multocida PM 12080 (IV102277-0093, BRD field isolate); assay: MIC, broth-microdilution (CLSI VET01-A4), strain PM 12080; settings: Pasteurella multocida strain PM 12080, broth-microdilution; unit assumed
Description: as §1, §2, §3

[6] = test system: Mannheimia haemolytica MH 13093 (XB0472-6014.1, BRD field isolate); assay: MIC, broth-microdilution (CLSI VET01-A4), strain MH 13093; settings: Mannheimia haemolytica strain MH 13093, broth-microdilution; unit assumed
Description: as §1, §2, §3

[7] = test system: Mannheimia haemolytica MH 13065 (XB0446-6003.9, BRD field isolate); assay: MIC, broth-microdilution (CLSI VET01-A4), strain MH 13065; settings: Mannheimia haemolytica strain MH 13065, broth-microdilution; unit assumed
Description: as §1, §2, §3

[8] = test system: Mannheimia haemolytica MH 6374 (ATCC 33396, reference strain); assay: MIC, broth-microdilution (CLSI VET01-A4), strain MH 6374; settings: Mannheimia haemolytica strain MH 6374, broth-microdilution; unit assumed
Description: as §1, §2, §3

[9] = test system: Mannheimia haemolytica MH 6357 (M7/2, reference strain, cattle infection strain); assay: MIC, broth-microdilution (CLSI VET01-A4), strain MH 6357; settings: Mannheimia haemolytica strain MH 6357, broth-microdilution; unit assumed
Description: as §1, §2, §3

[10] = test system: Pasteurella multocida PM 10775 (080130003051, BRD field isolate); assay: MIC, broth-microdilution (CLSI VET01-A4), strain PM 10775; settings: Pasteurella multocida strain PM 10775, broth-microdilution; unit assumed
Description: as §1, §2, §3

Compound	MIC PM 6391 [1] [µg/mL]	MIC MH 12587 [2] [µg/mL]	MIC MH 10720 [3] [µg/mL]	MIC PM 6267 [4] [µg/mL]	MIC PM 12080 [5] [µg/mL]	MIC MH 13093 [6] [µg/mL]	MIC MH 13065 [7] [µg/mL]	MIC MH 6374 [8] [µg/mL]	MIC MH 6357 [9] [µg/mL]	MIC PM 10775 [10] [µg/mL]
CC(C)(O)[C@H](NC(=O)c1ccc(C#Cc2ccc(CN3CCCC3)cc2)cc1)C(=O)NO [Compound 225]	0.8 (≈ 1.84 µM)	12.5 (≈ 28.7 µM)	1.6 (≈ 3.67 µM)	≤ 0.1	0.8 (≈ 1.84 µM)	12.5 (≈ 28.7 µM)	12.5 (≈ 28.7 µM)	6.3 (≈ 14.5 µM)	12.5 (≈ 28.7 µM)	–
CCN(CC)Cc1ccc(C#Cc2ccc(C(=O)N[C@H](C(=O)NO)C(C)C)cc2)cc1 [Compound 97]	–	12.5 (≈ 29.7 µM)	3.1 (≈ 7.35 µM)	0.2 (≈ 0.474 µM)	0.8 (≈ 1.9 µM)	12.5 (≈ 29.7 µM)	12.5 (≈ 29.7 µM)	12.5 (≈ 29.7 µM)	12.5 (≈ 29.7 µM)	≤ 0.1
CC[C@H](C)[C@H](NC(=O)c1ccc(C#Cc2ccc(CNCc3ccc(N(C)C)cc3)cc2)cc1)C(=O)NO [Compound 130]	–	12.5 (≈ 24.4 µM)	1.6 (≈ 3.12 µM)	3.1 (≈ 6.05 µM)	3.1 (≈ 6.05 µM)	6.3 (≈ 12.3 µM)	6.3 (≈ 12.3 µM)	3.1 (≈ 6.05 µM)	3.1 (≈ 6.05 µM)	0.4 (≈ 0.78 µM)
CC[C@H](C)[C@H](NC(=O)c1ccc(C#Cc2ccc(CNCCOC)cc2)cc1)C(=O)NO [Compound 115]	–	6.3 (≈ 14.4 µM)	0.8 (≈ 1.83 µM)	0.4 (≈ 0.914 µM)	1.6 (≈ 3.66 µM)	3.1 (≈ 7.09 µM)	3.1 (≈ 7.09 µM)	1.6 (≈ 3.66 µM)	6.3 (≈ 14.4 µM)	≤ 0.1
O=C(N[C@@H](CO)C(=O)NO)c1ccc(C#Cc2ccc(CNCc3ccc(C(F)(F)F)cc3)cc2)cc1 [Compound 89]	–	12.5 (≈ 24.4 µM)	1.6 (≈ 3.13 µM)	0.4 (≈ 0.782 µM)	1.6 (≈ 3.13 µM)	6.3 (≈ 12.3 µM)	6.3 (≈ 12.3 µM)	3.1 (≈ 6.06 µM)	6.3 (≈ 12.3 µM)	≤ 0.1
CC[C@H](C)[C@H](NC(=O)c1ccc(C#Cc2ccc(CNCc3ccncc3)cc2)cc1)C(=O)NO [Compound 132]	–	0.8 (≈ 1.7 µM)	0.2 (≈ 0.425 µM)	≤ 0.1	0.4 (≈ 0.85 µM)	0.8 (≈ 1.7 µM)	0.8 (≈ 1.7 µM)	0.8 (≈ 1.7 µM)	1.6 (≈ 3.4 µM)	≤ 0.1
CC(C)[C@H](NC(=O)c1ccc(C#Cc2ccc(CN3CCOCC3)cc2)cc1)C(=O)NO [Compound 98]	–	1.6 (≈ 3.67 µM)	0.4 (≈ 0.918 µM)	≤ 0.1	≤ 0.1	1.6 (≈ 3.67 µM)	1.6 (≈ 3.67 µM)	1.6 (≈ 3.67 µM)	0.8 (≈ 1.84 µM)	≤ 0.1
CC(C)[C@H](NC(=O)c1ccc(C#Cc2ccc(CNCC(C)(C)C)cc2)cc1)C(=O)NO [Compound 95]	–	6.3 (≈ 14.5 µM)	0.8 (≈ 1.84 µM)	≤ 0.1	0.4 (≈ 0.918 µM)	3.1 (≈ 7.12 µM)	3.1 (≈ 7.12 µM)	3.1 (≈ 7.12 µM)	1.6 (≈ 3.67 µM)	≤ 0.1
O=C(N[C@@H](CO)C(=O)NO)c1ccc(C#Cc2ccc(CNC3CC3)cc2)cc1 [Compound 71]	–	1.6 (≈ 4.07 µM)	0.4 (≈ 1.02 µM)	0.2 (≈ 0.508 µM)	0.4 (≈ 1.02 µM)	3.1 (≈ 7.88 µM)	0.8 (≈ 2.03 µM)	0.8 (≈ 2.03 µM)	1.6 (≈ 4.07 µM)	≤ 0.1
CCN(CC)Cc1ccc(C#Cc2ccc(C(=O)N[C@@H](CO)C(=O)NO)cc2)cc1 [Compound 76]	–	25 (≈ 61.1 µM)	6.3 (≈ 15.4 µM)	0.4 (≈ 0.977 µM)	3.1 (≈ 7.57 µM)	25 (≈ 61.1 µM)	12.5 (≈ 30.5 µM)	25 (≈ 61.1 µM)	12.5 (≈ 30.5 µM)	0.2 (≈ 0.488 µM)
CC(C)[C@H](NC(=O)c1ccc(C#Cc2ccc(CNCc3ccc(N(C)C)cc3)cc2)cc1)C(=O)NO [Compound 108]	–	3.1 (≈ 6.22 µM)	1.6 (≈ 3.21 µM)	0.4 (≈ 0.802 µM)	1.6 (≈ 3.21 µM)	3.1 (≈ 6.22 µM)	1.6 (≈ 3.21 µM)	1.6 (≈ 3.21 µM)	3.1 (≈ 6.22 µM)	≤ 0.1
COc1ccc(CNCc2cccc(C#Cc3ccc(C(=O)N[C@H](C(=O)NO)C(C)C)cc3)c2)cc1 [Compound 43]	–	12.5 (≈ 25.7 µM)	1.6 (≈ 3.3 µM)	3.1 (≈ 6.38 µM)	3.1 (≈ 6.38 µM)	12.5 (≈ 25.7 µM)	6.3 (≈ 13 µM)	6.3 (≈ 13 µM)	6.3 (≈ 13 µM)	0.4 (≈ 0.824 µM)
CC[C@H](C)[C@H](NC(=O)c1ccc(C#Cc2ccc(CNCC(C)(C)C)cc2)cc1)C(=O)NO [Compound 114]	–	12.5 (≈ 27.8 µM)	1.6 (≈ 3.56 µM)	0.2 (≈ 0.445 µM)	0.8 (≈ 1.78 µM)	6.3 (≈ 14 µM)	6.3 (≈ 14 µM)	12.5 (≈ 27.8 µM)	6.3 (≈ 14 µM)	≤ 0.1
CC[C@H](C)[C@H](NC(=O)c1ccc(C#Cc2ccc(CNCc3ccc(Cl)cc3)cc2)cc1)C(=O)NO [Compound 128]	–	12.5 (≈ 24.8 µM)	0.8 (≈ 1.59 µM)	3.1 (≈ 6.15 µM)	3.1 (≈ 6.15 µM)	6.3 (≈ 12.5 µM)	3.1 (≈ 6.15 µM)	3.1 (≈ 6.15 µM)	3.1 (≈ 6.15 µM)	0.4 (≈ 0.794 µM)
COc1cc2c(cc1OC)CN(Cc1ccc(C#Cc3ccc(C(=O)N[C@@H](CO)C(=O)NO)cc3)cc1)CC2 [Compound 84]	–	3.1 (≈ 5.85 µM)	0.8 (≈ 1.51 µM)	≤ 0.1	0.4 (≈ 0.755 µM)	3.1 (≈ 5.85 µM)	3.1 (≈ 5.85 µM)	3.1 (≈ 5.85 µM)	3.1 (≈ 5.85 µM)	≤ 0.1
CC(C)[C@H](NC(=O)c1ccc(C#Cc2ccc(CN3CCc4ccccc4C3)cc2)cc1)C(=O)NO [Compound 102]	–	12.5 (≈ 26 µM)	0.8 (≈ 1.66 µM)	0.4 (≈ 0.831 µM)	0.8 (≈ 1.66 µM)	6.3 (≈ 13.1 µM)	3.1 (≈ 6.44 µM)	3.1 (≈ 6.44 µM)	3.1 (≈ 6.44 µM)	≤ 0.1
CN(Cc1ccccc1)Cc1ccc(C#Cc2ccc(C(=O)N[C@@H](CO)C(=O)NO)cc2)cc1 [Compound 86]	–	3.1 (≈ 6.78 µM)	0.4 (≈ 0.874 µM)	≤ 0.1	0.8 (≈ 1.75 µM)	3.1 (≈ 6.78 µM)	1.6 (≈ 3.5 µM)	0.8 (≈ 1.75 µM)	1.6 (≈ 3.5 µM)	≤ 0.1
CC(C)[C@H](NC(=O)c1ccc(C#Cc2ccc(CN3CCN(c4ccccn4)CC3)cc2)cc1)C(=O)NO [Compound 101]	–	12.5 (≈ 24.4 µM)	0.8 (≈ 1.56 µM)	0.4 (≈ 0.782 µM)	0.8 (≈ 1.56 µM)	3.1 (≈ 6.06 µM)	3.1 (≈ 6.06 µM)	3.1 (≈ 6.06 µM)	3.1 (≈ 6.06 µM)	≤ 0.1
COCCNCc1ccc(C#Cc2ccc(C(=O)N[C@H](C(=O)NO)C(C)C)cc2)cc1 [Compound 96]	–	12.5 (≈ 29.5 µM)	0.8 (≈ 1.89 µM)	0.2 (≈ 0.472 µM)	0.8 (≈ 1.89 µM)	3.1 (≈ 7.32 µM)	1.6 (≈ 3.78 µM)	0.8 (≈ 1.89 µM)	3.1 (≈ 7.32 µM)	≤ 0.1
COc1ccc(CNCc2ccc(C#Cc3ccc(C(=O)N[C@H](C(=O)NO)C(C)C)cc3)cc2)cc1 [Compound 107]	–	3.1 (≈ 6.38 µM)	0.4 (≈ 0.824 µM)	0.2 (≈ 0.412 µM)	0.4 (≈ 0.824 µM)	0.8 (≈ 1.65 µM)	0.8 (≈ 1.65 µM)	0.8 (≈ 1.65 µM)	3.1 (≈ 6.38 µM)	≤ 0.1
CC(C)[C@H](NC(=O)c1ccc(C#Cc2cccc(CN3CCOCC3)c2)cc1)C(=O)NO [Compound 32]	–	12.5 (≈ 28.7 µM)	3.1 (≈ 7.12 µM)	1.6 (≈ 3.67 µM)	3.1 (≈ 7.12 µM)	6.3 (≈ 14.5 µM)	6.3 (≈ 14.5 µM)	6.3 (≈ 14.5 µM)	6.3 (≈ 14.5 µM)	0.4 (≈ 0.918 µM)
C=CCNCc1ccc(C#Cc2ccc(C(=O)N[C@H](C(=O)NO)C(C)C)cc2)cc1 [Compound 94]	–	1.6 (≈ 3.95 µM)	0.8 (≈ 1.97 µM)	≤ 0.1	0.8 (≈ 1.97 µM)	1.6 (≈ 3.95 µM)	0.8 (≈ 1.97 µM)	0.8 (≈ 1.97 µM)	12.5 (≈ 30.8 µM)	≤ 0.1
CC(C)[C@H](NC(=O)c1ccc(C#Cc2ccc(CN3CCS(=O)(=O)CC3)cc2)cc1)C(=O)NO [Compound 99]	–	12.5 (≈ 25.8 µM)	0.8 (≈ 1.65 µM)	≤ 0.1	0.2 (≈ 0.414 µM)	6.3 (≈ 13 µM)	6.3 (≈ 13 µM)	6.3 (≈ 13 µM)	3.1 (≈ 6.41 µM)	≤ 0.1
